# Test results: patent publication US10010608B2, “Combination therapies for cancer” (MERCK SHARP & DOHME CORP., priority 2013, dated 2018)
# System: CT-26 murine colorectal adenocarcinoma cell line
# Assay: Anti-tumor response of CT-26 tumor-bearing BALB/c mice (syngeneic model)
# Format: in vivo, mouse
# Text: This experiment compared the anti-tumor response of tumor-bearing mice to treatment with one of three regimens: (i) monotherapy with a murine anti-mouse PD-1 monoclonal antibody of murine isotype IgG1 (Anti-PD1); (ii) monotherapy with trametinib and (iii) combination therapy with anti-PD1 and trametinib administered concurrently. Murine isotype IgG1 is the murine counterpart isotype to human isotype IgG4.
# While human tumor cells or tumor explants can be grown in immunodeficient animals as xenografts, they cannot be used for testing immunotherapeutics because of the lack of a functional immune system. For a meaningful evaluation of immunotherapeutics or combination of immunotherapeutics with other agents, it is necessary to use a syngeneic model in which syngeneic tumors are grown in animals with an intact immune system. CT-26 is a murine colorectal adenocarcinoma cell line syngeneic to the BALB/c mouse strain. CT-26 carries a KRAS mutation that activates the mitogen-activating protein kinase pathway, which makes it a relevant model to evaluate sensitivity to trametinib (an inhibitor of mitogen-activated protein kinase kinase). This is also a relevant model system for evaluating the mechanism of action for an anti-PD-1 antibody because of the translatable molecular profile of this tumor post-anti-PD-1 therapy. […]
smiles,measurement,setting,value
"CC(=O)Nc1cccc(-n2c(=O)n(C3CC3)c(=O)c3c(Nc4ccc(I)cc4F)n(C)c(=O)c(C)c32)c1 [trametinib, N-{3-[3-cyclopropyl-5-(2-fluoro-4-iodo-phenylamino)6,8-dimethyl-2,4,7-trioxo-3,4,6,7-tetrahydro-2H-pyrido[4,3-d]pyrimidin-1-yl]phenyl}acetamide]",effect of trametinib on the anti-tumor effects of Anti-PD1,combination treatment arm,did not appear to antagonize
same,animals with complete regression (CR),"end of the 23 day treatment period, 12 mice per group",no CRs
